In patent US7521254B2, “Quantitative measurements of concentration and solubility using Raman spectroscopy” (Transform Pharmaceuticals, Inc., priority 2004, dated 2009):

Experiment: Raman spectroscopic measurement of solute concentration in multi-component solvent mixtures
Type: physicochemical
Conditions: prepared at 10 mg/mL
Method: FIGS. 1B and 1C depict calibration spectra for a two-component system (component A and component B) in which the solute from FIG. 1A is homogeneously distributed. FIG. 1B represents a calibration spectrum for single-component A while FIG. 1C represents a calibration spectrum for single-component B. The concentration of both single-component systems is 15 mg/mL. FIG. 1D depicts a Raman spectrum of the two-component system (A and B) with an unknown solute concentration. The ratio of A:B is 1:1 in the unknown sample. FIG. 1E is a representation of the Raman intensities at a particular frequency (v1) in both calibration spectra. A dotted line has been drawn between the calibration intensities and illustrates the expected Raman intensities at frequency v1 due to the solute molecule in mixtures of both components. […] In view of FIG. 1E, the ratio of components in the unknown sample can be used to determine the concentration of solute. […] A solute concentration above 15 mg/mL results in a Raman intensity greater than (IA+IB)/2 while a solute concentration below 15 mg/mL results in a Raman intensity less than (IA+IB)/2. Due to a directly proportional and linear relationship between Raman scattering intensity and concentration, values both above and below 15 mg/mL are easily calculated based on the measured Raman intensity of the unknown (multi-component) sample.
In another embodiment, automated software can be programmed to analyze the data. First, the software identifies the spectral peaks and intensities that are unique to the solute molecule by direct comparison with a solvent only (signature) spectrum. The various single-component (calibration) Raman spectra are then accessed and a calibration matrix is configured and saved from these single-component data. […] The concentration of solute in the multi-component system is calculated using a weighted average determination. For instance, the concentration (C) of a solute in a multi-component system can be calculated by using equation (1), C=a1c1+a2c2+a3c3+ . . . […]

| mean value for the concentration (1:1:1 ternary mixtures by volume (Table II), RSD 6.7 percent) [mg/mL] | mean value for the concentration (1:3 binary mixtures of excipients by volume (Table I), two trials, RSD 9.6 percent) [mg/mL] | mean value for the concentration (1:1 binary mixtures by volume (Table IV), RSD 9.7 percent) [mg/mL] | Structure (SMILES) |
| --- | --- | --- | --- |
| 9.48 | 10.18 |  | CC(=O)Nc1ccc(O)cc1 [Acetaminophen] |
|  |  | 10.19 | CC(=O)Oc1ccccc1C(=O)O [Acetylsalicylic acid] |
